This is an account of results in patent publication US9029063B2, “Negative-working lithographic printing plate precursors” (Eastman Kodak Company, priority 2011, dated 2015).

Like-named read-outs stand apart in the source and are kept apart here.

This data set can be described thus: Solubility in Dowanol PM (2-methoxy propanol). It counts as physicochemical. The conditions noted are these: 20 °C, organic solvent or mixture. The text has this: The imagable layers comprise a radiation-sensitive imaging composition that includes one or more infrared radiation absorbing dyes. […] 2-Methoxy propanol (or propylene glycol methyl ether) is available from various commercial sources, and for example, can be obtained in Dowanol® PM. In some embodiments, the ion exchange products formed between the infrared radiation absorbing cyanine cation and any counter anion from any other components, for example, a free radical initiator, in the imagable layer.
Dowanol® PM is propylene glycol methyl ether that is available from Dow Chemical.

The mark [1] stands for this setting: Dowanol PM (2-methoxy propanol), Table I, read-out: S1, Solubility of IR Dye in Dowanol PM.
[2] abbreviates: Dowanol PM (2-methoxy propanol), Table II, read-out: S1, solubility of IR Dye in Dowanol PM.
Setting [3] is: Dowanol PM (2-methoxy propanol), Table IV, read-out: S1, solubility of IR Dye in Dowanol PM.
The mark [4] stands for this setting: tetraphenyl borate salt of the dye cation, Dowanol PM, Table II, read-out: S2, solubility of the tetraphenyl borate salt of the IR cation in Dowanol PM.
The mark [5] stands for this setting: tetraphenyl borate salt of the dye cation, Dowanol PM, Table IV, read-out: S2, solubility of the tetraphenyl borate salt of the IR cation in Dowanol PM.
The mark [6] stands for this setting: tetraphenylborate salt of the dye cation, Dowanol PM, Table I, read-out: S2, Solubility of the tetraphenylborate salt of the IR cation in Dowanol PM.

Regarding `CN1/C(=C/C=C2\CCCC(/C=C/C3=[N+](C)c4ccccc4C3(C)C)=C2Sc2nnnn2-c2ccccc2)C(C)(C)c2ccccc21` [compound 1], the solubility under setting [1] is 192 mg/mL; the solubility under setting [2] is 192 mg/mL; the solubility under setting [3] turned out to be 192 mg/mL; the solubility under setting [4] amounted to 1.4 mg/mL; the solubility under setting [5] stood at 1.4 mg/mL; the solubility under setting [6] stood at 1.4 mg/mL.

Turning to `C=Cc1ccc(CSc2nnc(SC3=C(/C=C/C4=[N+](C)c5ccccc5C4(C)C)CCC/C3=C\C=C3\N(C)c4ccccc4C3(C)C)s2)cc1` [compound 2], the solubility under setting [2] was found to be 128 mg/mL; the solubility under setting [3] is 128 mg/mL; the solubility under setting [4] was 4.8 mg/mL; the solubility under setting [5] amounted to 4.8 mg/mL; the solubility under setting [6] was determined as 4.8 mg/mL.

Regarding `CN1/C(=C/C=C2\CCCC(/C=C/C3=[N+](C)c4ccccc4C3(C)C)=C2Sc2ccc(C(C)(C)C)cc2)C(C)(C)c2ccccc21` [compound 4], the solubility worked out at 97 mg/mL under setting [1] and 21 mg/mL under setting [6].

For orientation: solubility means the dissolved amount per volume that the medium holds.
